Data from PMC9459403, “New inhibitors of cathepsin V impair tumor cell proliferation and elastin degradation and increase immune cell cytotoxicity” (Computational and Structural Biotechnology Journal, 2022).

What was measured:
Format in all cases: cell-based, human
MCF7 cells = assay: Proliferation assay (CFSE-labeled cells, flow cytometry); conditions: 72 h; E-64d 10 μM, pepstatin 20 μM, LHVS 10 nM, CLIK-148 1 μM
Method: To assess the effect of cathepsin V inhibitors on cell proliferation, MCF7 cells were fluorescently labeled with carboxyfluorescein succinimidyl ester (CFSE; ImmunoChemistry Technologies, Bloomington, MN, USA) in PBS for 15 min at room temperature according to the manufacturer’s instructions. Cells were washed with PBS, resuspended in complete medium, seeded (at 4 × 10^4 cells/well) into 24-well plates, and allowed to adhere overnight. Cells were then treated with the following inhibitors: compound 7 (10 μM), E-64d (10 μM), CLIK-148 (1 μM), LHVS (10 nM), pepstatin (20 μM), their combinations, or DMSO (0.1 %) in 500 μL of medium for 72 h at 37 °C. To prepare cells for flow cytometry, cells were detached and transferred to round-bottomed polystyrene tubes and washed with PBS. Before measurement, 7-aminoactinomycin D (7-AAD; ImmunoChemistry Technologies, Bloomington, MN, USA) was added according to the manufacturer’s instructions to exclude dead cells. Therefore, the green fluorescence arising from CFSE was monitored only for viable cells. The measurement was performed using a FACSCalibur instrument (BD Biosciences, San Jose, CA, USA).

[1] = test system: U-937-derived macrophages; assay: Intracellular elastin-FITC degradation; conditions: 10 μM, 24 h, vs DMSO
Method: To evaluate the effect of the inhibitors on the elastolytic activity of cathepsin V, we assessed the intracellular degradation of elastin-FITC, a soluble bovine neck ligament elastin that is heavily labeled with FITC such that the fluorescence of the conjugate is quenched. Upon proteolysis, fluorescence is recovered and can be detected. U-937 cells, differentiated into macrophage-like cells, were seeded (at 1 × 10^5 cells/well) into 24-well plates with 500 μL of medium supplemented with 50 nM PMA. Inhibitors or DMSO (0.1 %) and elastin-FITC (10 μg/mL; AnaSpec, Fermont, CA, USA) were added to the medium and incubated for 24 h at 37 °C. Cells were detached and washed with PBS, and propidium iodide (BD Bioscience) was added to exclude dead cells. Therefore, green fluorescence arising from elastin-FITC degradation was monitored only for viable cells. The measurement was performed using a FACSCalibur instrument (BD Biosciences).

[2] = test system: cystatin F in U-937 cells; assay: Western blot of cystatin F dimer-to-monomer ratio; conditions: U-937 cell lysates, 6 h treatment, 10 and 20 μM, vs control
Method: Cells were treated with E-64d or compound 7 (both at 10 µM or 20 µM) for 6 h. After treatment, whole-cell lysates were prepared in RIPA buffer supplemented with cOmplete™ Protease Inhibitor Cocktail (Roche, Basel, Switzerland) and centrifuged at 16 000 × g for 20 min at 4 °C. Total protein concentration was determined using the DC assay (Biorad, Hercules, CA, USA). Proteins were separated by non-reducing SDS-PAGE and transferred to a nitrocellulose membrane using the TransBlot Turbo System (Biorad). After blocking, the membranes were incubated with primary antibodies overnight at 4 °C and with secondary antibodies for 1 h at room temperature. Bands were visualized using Clarity Max Western ECL substrate (Biorad), and protein loading was checked using Stain Free technology (Biorad). Images were acquired using the ChemiDoc ML Imaging System (Biorad), and quantification analysis was performed using Image Lab software (Biorad).
The following primary antibodies were used: rabbit anti-cystatin F (1:375, HPA040442, Sigma), goat anti-cathepsin V (1:200, AF 1080, R&D, USA), and mouse anti-GAPDH (1:3000, 10494-I-AP, Proteintech, USA). […]

[3] = test system: NK-92 effector cells on target K-562 cells; assay: Calcein AM release assay (cytotoxicity); conditions: effector cells treated 10 µM, 6 h
Method: (§1) Effector cells (NK-92 or TALL-104; 1 × 10^6/ml) were treated with E-64d (10 µM) or compound 7 (10 µM) for 6 h. NK-92 cells were pre-treated with 1000 IU IL2/mL overnight prior to the addition of inhibitors. Effector cells were added to a 96-well U-bottom plate to achieve a selected effector-to-target ratio (E:T). Target K-562 cells were labelled with 15 µM Calcein-AM (Sigma) in serum-free RPMI 1640 medium for 30 min at 37 °C. Cells were then washed twice and resuspended in complete RPMI 1640 medium. Target cells (n = 5000) were added to the effectors. The plate was centrifuged at 200 × g for 1 min and incubated at 37 °C and 5 % CO2 for 4 h. After incubation, the plate was centrifuged at 700 × g for 5 min. The supernatant (50 µL) was transferred to a new microtiter plate to measure the fluorescence of the released Calcein-AM with a Tecan M1000 microtiter plate reader using 496 nm excitation and 516 nm emission filters. The percentage of cytotoxicity was calculated as follows: 100(test release-spontaneous release)/(total release-spontaneous release). Spontaneous release was measured in wells containing only target cells. For total release, 2 % Triton X-100 was added to the wells to achieve lysis of target cells. Lytic units (LU) were calculated using the inverse of the number of effector cells needed to lyse 30 % of the target cells multiplied by 100.

[4] = test system: TALL-104 effector cells on target K-562 cells; assay: Calcein AM release assay (cytotoxicity); conditions: effector cells treated 10 µM, 6 h
Method: as §1

## CCOC(=O)[C@H]1O[C@@H]1C(=O)N[C@@H](CC(C)C)C(=O)NCCC(C)C [Compound E-64d, reference compound]
MCF7 cells
  effect on cell proliferation (relative CFSE fluorescence intensity vs DMSO): no effects on cell proliferation
[1]
  decrease of elastin-FITC degradation: 18.4 ± 7.0%
[2]
  cystatin F dimer-to-monomer ratio: increased
[3]
  cytotoxicity of NK-92 cells (target cell killing): decreased cytotoxic function
[4]
  cytotoxicity of TALL-104 cells (target cell killing): decreased cytotoxic function
